System: human skin
Assay: Kinetics of penetration of caffeine through thawed human skin mounted on Franz cells
Format: in vitro ADME
Settings: receptor liquid
Text: This study is made, in vitro, on human skin, which is kept beforehand by freezing, with the aim of evaluating the influence of the mixture according to the invention on the penetration and the distribution of caffeine within the skin beds. The occlusive properties of a gel according to the invention lead the research of an eventual patch effect. This study is made in comparison with a Carbopol gel.
The principle of the study is based on the evaluation of the diffusion of an active principle through the thawed human skin which is mounted on Franz cells.
These cells are constituted of two glass elements which delimit an upper partition and a lower partition, and they have an exposed surface area of […]. The skin is placed between these two elements, stratum corneum to the top. The active principle deposited on the skin crosses it and is collected in the lower partition, dissolved in a solution which is known as the receptor solution and which is constituted of a phosphate buffer+Na nitride (0.1%) mixture. […]
The kinetics of penetration, in μg/cm^2 per unit time, is expressed as a function of the interval of confidence, the IC95%, wherein the residual standard deviation is calculated by the ANOVA method over the whole of the tests. […]

Cn1c(=O)c2c(ncn2C)n(C)c1=O [caffeine]
maximum concentration of caffeine collected during the study: less than 23 μg/mL
